One data set concerns PLC/PRF/5. Nature of the data set: Proliferation assay, mono and fixed-ratio combinations (Cell Titre-Glo, 96 h). The format is cell-based, human. As to conditions: PLC/PRF/5, single compound, 96 hour exposure.
Another data set relates to SNU-449. The description is as above. The data set is classed as cell-based, human. As to conditions: SNU-449, single compound, 96 hour exposure.
The next data set relates to IGR-OV1 cancer xenograft. The data set can be described thus: Human IGR-OV1 endometrial cancer xenograft model. The format is in vivo, female NMRI nude mice. As to conditions: IGR-OV1, day 55 after tumor inoculation. (In general: In xenograft studies the graft and the host belong to different species.)
In data set [1] the test system is IGR-OV1 endometrial cancer xenograft. The data set can be described thus: Human IGR-OV1 endometrial cancer xenograft model. The data set is classed as in vivo, female NMRI nude mice. As to conditions: IGR-OV1; 10 mg/kg, i.v., once daily, 2 days on/5 days off, days 1, 2 each week.
Procedure: (§3) The oral application volume was 10 ml/kg and the intravenous application volume 5 ml/kg. The time interval between two applications per day was 6-7 h. […] The tumor size and the body weight were determined three times weekly. Changes in the body weight compared to the initial body weight at the start of treatment were a measure of treatment-related toxicity (>10%=critical, stoppage in treatment until recovery, >20%=toxic, termination). The tumor area was detected by means of an electronic caliper gauge [length (mm)×width (mm)]. In vivo anti-tumor efficacy is presented as T/C ratio (Treatment/Control) calculated with tumor areas at day of termination of control group by the formula [(tumor area of treatment group at day x)−(tumor area of treatment group at day before first treatment)]/[(tumor area control group at day x)−(tumor area of control group at day before first treatment)]. […] A one-way analysis of variance was performed and differences to the control were compared by a pair-wise comparison procedure (Dunn's method).
Data set [2] has as its system Ri-1 B cell lymphoma xenograft. The data set can be described thus: Human Ri-1 B cell lymphoma xenograft model. The format is in vivo, female NOD/SCID mice.
Procedure: as §3
Another data set has as its system VCaP. The data set can be described thus: Proliferation assay of prostate cancer cell lines with R1881 (Cell Titre-Glo, 144 h). The data set is classed as cell-based, human. As to conditions: 0.1 nM R1881, 144 hour exposure, single compound.
Data set [3] relates to 22Rv1 prostate cancer xenograft. Nature of the data set: Human 22Rv1 prostate cancer xenograft model. The format is in vivo, male Fox Chase SCID mice.
Procedure: as §3
The next data set concerns 22Rv1. Nature of the data set: Proliferation assay of prostate cancer cell lines with R1881 (Cell Titre-Glo, 144 h). The data set is classed as cell-based, human. As to conditions: 22Rv1, 0.1 nM R1881, 144 hour exposure, single compound.
Data set [4] deals with SUM-149 breast cancer xenograft. Nature of the data set: Human SUM-149 breast cancer xenograft model. The format is in vivo, female NMRI nude mice.
Procedure: as §3
Another data set has as its system LNCaP. Nature of the data set: Proliferation assay of prostate cancer cell lines with R1881 (Cell Titre-Glo, 144 h). The format is cell-based, human. As to conditions: 0.3 nM R1881, 144 hour exposure, single compound.
For a further data set, the system named is OVCAR-3. The data set can be described thus: 72-hour growth assay of ovary cancer cell lines (Cell Titre-Glo). The format is cell-based, human. As to conditions: OVCAR-3, single compound, 72 hour exposure.
A further data set deals with Huh-7. Nature of the data set: Proliferation assay, mono and fixed-ratio combinations (Cell Titre-Glo, 96 h). The format is cell-based, human. As to conditions: Huh-7, single compound, 96 hour exposure.
The subject of a further data set is NCI-H460. Nature of the data set: Proliferation assay of cell lines treated with Compound A, Compound B and fixed-ratio combinations (Cell Titre-Glo, 96 h). The format is cell-based, human. As to conditions: NCI-H460, single compound, 96 hour exposure.
The test system of another data set is SUM-149. Nature of the data set: Proliferation assay, mono and fixed-ratio combinations (Cell Titre-Glo, 96 h). The data set is classed as cell-based, human. As to conditions: SUM-149, single compound, 96 hour exposure.
The next data set concerns IGR-OV1. The data set is described as above. As to conditions: IGR-OV1, single compound, 96 hour exposure. The format is cell-based, human.
The next data set concerns C4-2B. Nature of the data set: Proliferation assay of prostate cancer cell lines with R1881 (Cell Titre-Glo, 144 h). The data set is classed as cell-based, human. As to conditions: 0.3 nM R1881, 144 hour exposure, single compound.
For the next data set, the system named is PC-3. The data set can be described thus: Proliferation assay of prostate cancer cell lines with R1881 (Cell Titre-Glo, 96 h). The format is cell-based, human. As to conditions: PC-3, 0.1 nM R1881, 96 hour exposure, single compound.
For another data set, the system named is SK-OV-3. Nature of the data set: Proliferation assay, mono and fixed-ratio combinations (Cell Titre-Glo, 96 h). The format is cell-based, human. As to conditions: SK-OV-3, single compound, 96 hour exposure.
The test system of the next data set is HCT 116. The description is as above. The format is cell-based, human. As to conditions: HCT 116, single compound, 96 hour exposure.
A further data set relates to A2780. Nature of the data set: 72-hour growth assay of ovary cancer cell lines (Cell Titre-Glo). The format is cell-based, human. As to conditions: A2780, single compound, 72 hour exposure.
In data set [5] the test system is pancreatic cancer cell line Capan-1. Nature of the data set: Full matrix combination, 72-hour proliferation assay (CellTiter-Glo). The format is cell-based. As to conditions: Capan-1, single agent. As to the method: (§1) Percentage of control (DMSO) in tumor cell growth assay in vitro is used for the assessment of combination effects.
(§2) The efficacy parameters were the effects in a 72-hour assay. Tumor cells were cultured in 37° C. incubator in their respective growth medium and serum according to the protocol from providers. […] Cell viability was assessed after 72 hour exposure with the Cell Titre-Glo Luminescent Cell Viability Assay (Promega).
Background: Cellular ATP, detected with luciferase, serves as a proxy for viable cell number.

Data set [6] concerns small cell lung cancer cell line NCI-H1048. The description is as above. The data set is classed as cell-based. The method, then: as §1, §2
Data set [7] has as its system ovarian cancer cell lines SK-OV-3. The data set is described as above. The format is cell-based. As to conditions: SK-OV-3, single agent Compound A. The method, then:
as §1, §2

The next data set relates to MDA-MB-468. The data set can be described thus: Proliferation assay, mono and fixed-ratio combinations (Cell Titre-Glo, 96 h). As to conditions: MDA-MB-468, single compound, 96 hour exposure. The format is cell-based, human.
Setting [8] is: Ri-1, 10 mg/kg, i.v., once daily, 2 days on/5 days off, days 1, 2 each week.
Setting [9] is: SUM-149, 10 mg/kg, i.v., once daily, 2 days on/5 days off, days 1, 2 each week.

Molecules are shown by their SMILES. Where two headings read alike, the source gives them in different places. Marks after values point to notes of the source that are not given here.

Procedure for A2780: (§4) The effects of combinations of the present invention were evaluated using combination index isobologram analysis for in vitro assessment. The efficacy parameters were the effects in a 72-hour growth assay. Tumor cells were propagated in a humidified 37° C. incubator in their respective growth medium (RPMI) supplemented with 10% fetal calf serum. […] Cell viability was assessed after 72 hour exposure with the Cell Titre-Glo Luminescent Cell Viability Assay (Promega). […] IC50 isobolograms were plotted with the actual concentrations of the two compounds on the x- and y-axis, and the combination index (CI) was calculated according to the median-effect model of Chou-Talalay [Chou T. C.
Procedure for C4-2B: (§5) Tumor cells were propagated in a humidified 37° C. incubator in their respective growth medium supplemented with 10% fetal calf serum. […] Cell viability was assessed after 144 hour exposure, except for PC-3 cells where measurement took place after 96 hour exposure, with the Cell Titre-Glo Luminescent Cell Viability Assay (Promega).
Procedure for HCT 116: (§6) Tumor cells were propagated in a humidified 37° C. incubator in their respective growth medium supplemented 10% fetal calf serum. […] Cell viability was assessed after 96 hour exposure with the Cell Titre-Glo Luminescent Cell Viability Assay (Promega). […] IC50 isobolograms were plotted with the actual concentrations of the two compounds on the x- and y-axis, and the combination index (CI) was calculated according to the median-effect model of Chou-Talalay [Chou T. C.
Procedure for Huh-7: as §6
Procedure for IGR-OV1 cancer xenograft: as §3
Procedure for LNCaP: as §5
Procedure for MDA-MB-468: (§7) Tumor cells were propagated in a humidified 37° C. incubator in their respective growth medium supplemented 10% fetal calf serum. […] Cell viability was assessed after 96 hour exposure with the Cell Titre-Glo Luminescent Cell Viability Assay (Promega).
Procedure for NCI-H460: as §6
Procedure for OVCAR-3: as §4
Procedure for PC-3: as §5
Procedure for PLC/PRF/5: as §7
Procedure for SNU-449: as §7
Procedure for VCaP: as §5

For the compound `COc1c(OCCCN2CCOCC2)ccc2c1N=C(NC(=O)c1cnc(N)nc1)N1CCN=C21.Cl.Cl` [Compound A, 2-amino-N-[7-methoxy-8-(3-morpholin-4-ylpropoxy)-2,3-dihydroimid-azo[1,2-c]quinazolin-5-yl]pyrimidine-5-carboxamide dihydrochloride], the IC50 in the data set on PLC/PRF/5 turned out to be 180 nM; with SNU-449 it was 100 nM; in the data set on VCaP it was 13 nM; in the data set with 22Rv1, 50 nM; in the data set on LNCaP, 8 nM; with OVCAR-3, 120 nM. Also, the IC50 with Huh-7 is 21 nM; with NCI-H460 it was 63 nM; in the data set with SUM-149 it was 10 nM; in the data set on IGR-OV1 it was 19 nM; in the data set with C4-2B, 92 nM; in the data set on PC-3 it was 100 nM. Also, the half-maximal inhibitory concentration (IC50) with SK-OV-3 is 82 nM; with HCT 116, 95 nM; in the data set with A2780 it was 37.4 nM; with MDA-MB-468, 280 nM. The “Anti-tumor efficacy of monotherapy compared to control” value was “good to moderate and statistically significant improved anti-tumor efficacy” in the data set with IGR-OV1 cancer xenograft; “good and statistically significant improved anti-tumor efficacy” in data set [2] (Ri-1, day 38 after tumor inoculation); “weak to moderate and statistically significant improved anti-tumor efficacy” in [3] (22Rv1, at the day of control group termination); “weak to moderate and statistically significant improved anti-tumor efficacy” in [4] (SUM-149, day 49 after tumor inoculation). The “Max. weight loss (%)” value is −6% in data set [1]; −11% in data set [2] (setting [8]); −8% in data set [3] (22Rv1, 14 mg/kg, i.v., once daily, 2 days on/5 days off, days 1, 2 each week); −10% in data set [4] (setting [9]). For the same compound, the T/C is 0.32* in data set [1]; 0.09* in [2] (setting [8]); 0.51* in data set [3] (22Rv1, 14 mg/kg, i.v., once daily, 2 days on/5 days off, days 1, 2 each week, tumor area at termination of control group); 0.58* in [4] (setting [9]). Besides, the “Concentration at which single agent led to moderate anti-proliferation effects” value in data set [5] amounted to 0.025 µM. For the same compound, the Concentration at which treatment led to tumor killing in [6] (NCI-H1048, single agent Compound A, 72-hour proliferation assay) worked out at 0.025 µM. For the same compound, in [7], the Concentration at which single agent showed anti-proliferative effects was 0.025 µM.

As for `C[C@@H]1COCCN1c1cc(-c2ccnn2C)c2ccnc(-c3ccn[nH]3)c2n1` [Compound B, 2-[(3R)-3-methylmorpholin-4-yl]-4-(1-methyl-1H-pyrazol-5-yl)-8-(1H-pyrazol-5-yl)-1,7-naphthyridine], the “Concentration at which treatment led to tumor killing” value in data set [6] was 0.253 µM.

As usually defined, the IC50 is the point on the concentration scale where inhibition reaches its midpoint.

The record behind these values is patent US20210369724A1, “COMBINATION OF ATR KINASE INHIBITORS WITH 2,3-DIHYDROIMIDAZO[1,2-C]QUINAZOLINE COMPOUNDS” (Bayer Aktiengesellschaft, priority 2018, published 2021).
